According to patent US20110098323A1, “INHIBITORS OF BACTERIAL BIOFILM FORMATION” (MICROBIOTIX, INC., priority 2009, published 2011):

Experiments:
S. aureus ATCC 35556 = assay: MBIC/MIC secondary assay; assay type: cell-based, Staphylococcus aureus; details: S. aureus ATCC 35556, Table 2; for MIC: Staphylococcus aureus, ATCC35556, read-out: MIC
S. epidermidis 18972 = assay: MBIC/MIC secondary assay (crystal violet biofilm staining / OD600 growth); assay type: cell-based, Staphylococcus epidermidis; details: S. epidermidis 18972, Table 2; for MBIC: lowest concentration inhibiting biofilm formation ≧80%; for MIC: Staphylococcus epidermidis, lowest concentration inhibiting growth ≧80%, read-out: MIC
Procedure: Assays for detecting and measuring bacterial biofilm formation are known in the art. An example of a biofilm formation assay useful in detecting and characterizing biofilm inhibitor compounds is described in Example 1, infra. Briefly, bacterial cells are inoculated into growth medium in individual wells of a 96-well assay plate in the presence or absence of a compound (known biofilm inhibitor or test compound). After incubation for a specified time, growth medium and non-biofilm bacterial cells are removed from each of the wells. The bacterial cells in any biofilms that are adhered to the surface of a well are fixed by addition of ethanol. The ethanol is removed, and the fixed biofilm bacteria cells are stained with crystal violet (CV). The intensity of CV staining is directly correlated with bacterial biofilm formation and is measured in the wells by reading the optical density at 600 nm (OD600). The difference in biofilm formation between untreated control and treated cultures provides an indication of relative biofilm inhibition activity (anti-biofilm activity). Use of different concentrations of an inhibitor in multiple and otherwise duplicate cultures permits determination of a compound's Minimal Biofilm Inhibitory Concentration (MBIC), which is defined herein as the lowest concentration of a compound that inhibits biofilm formation by at least 80% (i.e., ≧80%) compared to untreated control cultures.
A higher throughput was achieved by formatting the assay for use in flat-bottomed 96-well assay plates (Costar 3590 assay plates, Corning Life Sciences, Lowell, Mass.). The biofilm cultures grew on the bottoms of each well in a surface attached mode. In each assay plate, columns 1 and 12 contained untreated cultures, which served as negative controls (0% biofilm inhibition). Each of the assay wells in columns 2-11 contained a unique small molecule from the Microbiotix Screening Library (MSL) at a final concentration of 100 μM. Assay plates were inoculated with 200 μl/well of a culture of Staphylococcus pidermidis 18972 in 0.5×Tryptic Soy Broth (TSB; Becton Dickinson, Franklin Lakes, N.J.) in which the concentration of glucose was adjusted to 0.25% (w/v). The bacterial inocula were prepared by making a 1:100 dilution of an overnight culture grown in TSB in the media used for the screen. After inoculation, assay plates were sealed with foil tape and incubated at 37° C. for 18-20 hours (h). The optical density at 600 nm (OD600) was measured for each well using a VICTOR2V™ multiplate reader (Perkin Elmer, Waltham, Mass.) in order to quantify overall bacterial growth. The assay plates were processed to remove bacterial growth media and non-biofilm cells from the bottom of each assay well. This was accomplished by using a BioTek ELx405™ plate washer (BioTek Instruments, Inc., Winooski, Vt.). Biofilm bacteria were fixed by addition of 50 μl of 95% ethanol for 30 minutes (min). The ethanol was removed, and the fixed biofilm cultures were stained with 50 μl of 0.06% crystal violet (CV) for 60 min. Excess CV was removed by repeated washes using the BioTek ELx405™ plate washer. The amount of CV bound to each assay well was quantified by measuring OD600 using a VICTOR2V™ plate reader (Perkin Elmer).
A secondary assay provided a quantitative measure of both anti-biofilm activity and antibacterial activity in terms of the Minimal Biofilm Inhibitory Concentration (MBIC) and the Minimal Inhibitory Concentration (MIC), respectively. The MBIC and MIC are defined as the lowest compound concentrations that inhibit biofilm formation and bacterial growth, respectively, by at least 80% (i.e., ≧80%). The MBIC/MIC assay is formatted in a manner that is similar to the Microbroth dilution assays described by the Clinical and Laboratory Standards Institute (CLSI; formerly NCCLS) in protocol M7-A7. The growth conditions were optimized for biofilm growth in 96-well assay plates such that the resulting CV staining was within the linear range of detection. […]

[1] = In vitro cytotoxicity assay (CC50), Alamar Blue; assay type: cell-based; details: human, HeLa cells, 10% Fetal Bovine Serum
Procedure: Validated hits were tested for general cytotoxicity against a mammalian cell line. In this assay, an assay plate was seeded with an immortalized human cell line (HeLa) and exposed to a series of two-fold dilutions of each test compound for 72 hours in standard media containing 10% Fetal Bovine Serum. After exposure to the compounds, the cellular viability was assessed using Alamar Blue™ (AccuMed International, Inc.), an oxidation-reduction indicator that is useful for quantitatively measuring cell-mediated cytotoxicity. Alamar Blue reduction was quantified using fluorescence measurements, and the data were analyzed using a two-parameter curve-fitting program (Assay Explorer, Elsevier MDL, San Rafael, Calif.) to determine the CC50 value, i.e., the compound concentration that decreases cellular viability by 50%. Compounds with CC50/MBIC≧50 were given highest priority. Validated hits that met the criteria for high priority were re-ordered from the original vendor and re-tested.

Row | SMILES | MBIC (S. aureus ATCC 35556) [µM] | MIC (S. aureus ATCC 35556) [µM] | MBIC (S. epidermidis 18972) [µM] | MIC (S. epidermidis 18972) [µM] | CC50 at 72 h [1] [µM]
1 | COc1ccc(C2=C/C(=C/c3ccc(O)c(OC)c3)C(=O)O2)c(OC)c1 [MSL-051097, 3-(4-hydroxy-3-methoxybenzylidene)-5-(2,4-dimethoxyphenyl)furan-2(3H)-one] | 6.25 | ≥ 100 | 25 | ≥ 100 | 29.4
2 | CCOc1cc(/C=C2\SC(=S)N(c3ccc(Br)cc3)C2=O)ccc1O [MSL-049293, 3-(4-bromophenyl)-5-(3-ethoxy-4-hydroxybenzylidene)-2-thioxothiazolidin-4-one] | 1.5625 | ≥ 100 | 12.5 | ≥ 100 | ≥ 100
3 | COc1cc(/C=C2\SC(=S)N(c3cccc(Cl)c3)C2=O)cc(Br)c1O [MSL-049731, 3-(3-chlorophenyl)-5-(3-bromo-4-hydroxy-5-methoxybenzylidene)-2-thioxothiazolidin-4-one] | 6.25 | ≥ 100 | 25 | ≥ 100 | –
